The source of these data is patent US20060105023A1, “Treatment of neurological disorders with nicotine” (priority 2001, published 2006).

For data set [1] the following is noted: within six hours, at a half life of about 60 minutes. The source says:
It should be kept in mind that nicotine is a toxic compound. Therefore, only the minimum amount required for relief from smoking addiction or migraine symptoms should be used. […] Fortunately, nicotine is metabolized fairly rapidly.

For data set [2] the following is noted: people with average metabolic capacity for the compound; cited from earlier work.
In a further data set the test system is adult. Particulars: absorbed in one dose; cited from earlier work.

As for `CN1CCCC1c1cccnc1` (stereo not drawn) [nicotine], in data set [1], the “amount remaining of one mg of nicotine absorbed in the body” value is listed as “about 0.031 mg”. For the same compound, the half life entry in data set [2] is reported as “about 60 minutes”. The lethal dose entry in the data set on adult is reported as “Sixty”.
